Assay [1] addresses Recombinant Human NF-Kappab-Inducing Kinase (NIK/MAP3K14) (Homo sapiens, UniProt Q99558). In words: Inhibition of auto-phosphorylation of recombinant human NIK/MAP3K14 (AlphaScreen). The assay is classed as biochemical. The note with it: NIK/MAP3K14 auto-phosphorylation, 5 microM ATP, 1 nM enzyme, 2 h at 25° C.; average of values; read-out: Assay 1 IC50. An outline of the steps: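 GST-tagged NIK (1 nM) auto-phosphorylation with 5 µM ATP in Tris pH 7.5/MgCl2 buffer, 0.7% DMSO, 2 h at 25 °C. Phospho-IKK Ser176/180 antibody detected by AlphaScreen beads. Signal normalized to full-enzyme and no-ATP controls; IC50 from sigmoidal fit of % inhibition vs log concentration.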
(In general: Bead proximity is the source of the signal in Alpha formats.)

Assay [2] deals with p-IKKα levels in L363 (NIK translocated multiple myeloma) cells. In words: Effect of compounds on p-IKKα levels in L363 cells (AlphaLISA SureFire Ultra). The settings on record: Homo sapiens, L-363; L363 cells, BAFF stimulated, MG132, 6 h; average of values; read-out: Assay 2 IC50. The assay is classed as cell-based. Put shortly: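 L363 myeloma cells were BAFF-stimulated (250 ng/ml) overnight in DMEM/0.5% BSA, then exposed 6 h at 37° C to compound (11-point 1:3 series, 0.3% DMSO) with BAFF plus 10 uM MG132. p-IKKα (Ser 176/180) was read by AlphaLISA SureFire Ultra in lysates. IC50 came from sigmoidal fits normalized to stimulated and unstimulated controls.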

The IC50 is the midpoint of a concentration-inhibition curve.

Sequence of Recombinant Human NF-Kappab-Inducing Kinase (NIK/MAP3K14) (Q99558 whole entry): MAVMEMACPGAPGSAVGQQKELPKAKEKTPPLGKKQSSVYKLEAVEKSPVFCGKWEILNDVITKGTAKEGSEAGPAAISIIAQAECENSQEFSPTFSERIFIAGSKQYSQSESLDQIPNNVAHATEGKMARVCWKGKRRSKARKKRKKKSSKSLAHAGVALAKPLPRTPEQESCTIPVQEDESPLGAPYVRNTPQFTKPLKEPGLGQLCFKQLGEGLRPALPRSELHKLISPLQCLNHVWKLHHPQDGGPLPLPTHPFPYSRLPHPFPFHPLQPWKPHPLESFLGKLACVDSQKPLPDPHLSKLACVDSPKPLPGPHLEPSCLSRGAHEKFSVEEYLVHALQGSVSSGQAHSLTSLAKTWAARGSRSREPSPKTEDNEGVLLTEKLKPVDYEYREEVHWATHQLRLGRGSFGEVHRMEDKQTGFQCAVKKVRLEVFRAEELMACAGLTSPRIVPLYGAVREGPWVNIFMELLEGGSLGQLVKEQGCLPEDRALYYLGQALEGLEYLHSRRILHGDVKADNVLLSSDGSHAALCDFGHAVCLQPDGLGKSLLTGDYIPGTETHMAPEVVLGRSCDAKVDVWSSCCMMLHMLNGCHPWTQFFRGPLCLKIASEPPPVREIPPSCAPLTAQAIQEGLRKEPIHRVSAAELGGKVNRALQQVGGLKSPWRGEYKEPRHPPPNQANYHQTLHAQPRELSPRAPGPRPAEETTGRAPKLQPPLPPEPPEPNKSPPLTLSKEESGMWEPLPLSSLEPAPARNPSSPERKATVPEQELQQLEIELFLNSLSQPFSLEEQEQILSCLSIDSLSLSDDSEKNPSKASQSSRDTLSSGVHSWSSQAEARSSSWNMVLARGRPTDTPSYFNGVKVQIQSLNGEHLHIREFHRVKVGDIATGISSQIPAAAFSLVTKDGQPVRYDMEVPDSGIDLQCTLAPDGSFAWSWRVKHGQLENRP

`CN1CC[C@@](O)(c2cc(-c3ccc(-c4cccc(C(N)=O)n4)o3)no2)C1=O` [Example 164, (R)-6-(5-(5-(3-Hydroxy-1-methyl-2-oxopyrrolidin-3-yl)isoxazol-3-yl)furan-2-yl)picolinamide]: the IC50 was less than 100 nM in assay [1] and more than 501 nM in assay [2].
Turning to `CN1CC[C@@](O)(c2cc(-c3cccc(-c4nc(C(N)=O)c(CN5CCCC5)s4)c3)no2)C1=O` [Example 231, (R)-2-(3-(5-(3-Hydroxy-1-methyl-2-oxopyrrolidin-3-yl)isoxazol-3-yl)phenyl)-5-(pyrrolidin-1-ylmethyl)thiazole-4-carboxamide], the IC50 is less than 100 nM in assay [1] and more than 501 nM in assay [2].
Taken in the same sequence, the figures for `CN1CC[C@@](O)(c2cc(-c3cccc(-c4cccc(C(N)=O)n4)c3)n(C)n2)C1=O` (single isomer, unassigned) [Example 30] were more than 501 nM and more than 501 nM.
On to `CN1CC[C@@](O)(c2cc(-c3cccc(-c4ncc(Nc5cnn(C)c5)c(C(N)=O)n4)c3)no2)C1=O` [Example 137, (R)-2-(3-(5-(3-Hydroxy-1-methyl-2-oxopyrrolidin-3-yl)isoxazol-3-yl)phenyl)-5-((1-methyl-1H-pyrazol-4-yl)amino)pyrimidine-4-carboxamide], for which the IC50 in assay [1] and in assay [2] was less than 100 nM each time.
Turning to `CN1CCC(O)(c2cc(-c3cccc(-c4nccc(C(N)=O)n4)c3)on2)C1=O` (racemic) [Example 161, (R,S)-2-(3-(3-(3-Hydroxy-1-methyl-2-oxopyrrolidin-3-yl)isoxazol-5-yl)phenyl)pyrimidine-4-carboxamide], the IC50 is less than 100 nM in assay [1] and more than 501 nM in assay [2].
For `CN1CC[C@](O)(c2cc(-c3cccc(-c4cccc(C(N)=O)n4)c3)no2)C1=O` [Example 149, (S)-6-(3-(5-(3-Hydroxy-1-methyl-2-oxopyrrolidin-3-yl)isoxazol-3-yl)phenyl)picolinamide] the same measures were more than 501 nM and more than 501 nM.
Taken in the same sequence, the figures for `Cc1n[nH]c2nc(-c3cccc(-c4cc([C@]5(O)CCN(C)C5=O)on4)c3)cc(C(N)=O)c12` [Example 84, (R)-6-(3-(5-(3-Hydroxy-1-methyl-2-oxopyrrolidin-3-yl)isoxazol-3-yl)phenyl)-3-methyl-1H-pyrazolo[3,4-b]pyridine-4-carboxamide] were more than 501 nM and more than 501 nM.
In the case of `COc1cc(-c2cc(-c3cc([C@]4(O)C[C@@H](C(F)(F)F)N(C)C4=O)on3)c(F)cc2F)nc2c(N)ncnc12` [Example 115, (3R,5S)-3-(3-(5-(4-Amino-8-methoxypyrido[3,2-d]pyrimidin-6-yl)-2,4-difluorophenyl)isoxazol-5-yl)-3-hydroxy-1-methyl-5-(trifluoromethyl)pyrrolidin-2-one], the IC50 in assay [1] and in assay [2] was more than 501 nM each time.
`CN1CC[C@@](O)(c2cc(-c3cccc(-c4nc(C(N)=O)c(C(F)F)s4)c3)no2)C1=O` [Example 222, (R)-5-(Difluoromethyl)-2-(3-(5-(3-hydroxy-1-methyl-2-oxopyrrolidin-3-yl)isoxazol-3-yl)phenyl)thiazole-4-carboxamide]: the results for the concentration for half-maximal inhibition (IC50) in assay [1] and in assay [2] were less than 100 nM and 100 to 500 nM, respectively.
For `CN1CC[C@@](O)(c2cc(-c3cccc(-c4ccn5cncc5c4)c3)no2)C1=O` [Example 67, (R)-3-Hydroxy-3-(3-(3-(imidazo[1,5-a]pyridin-7-yl)phenyl)isoxazol-5-yl)-1-methylpyrrolidin-2-one], the IC50 is 100 to 500 nM in assay [1] and more than 501 nM in assay [2].
For `CN1CC[C@@](O)(c2cc(-c3cccc(-c4nc5c(c(C(N)=O)n4)[C@H]4CC[C@@H](C5)O4)c3)no2)C1=O` [Example 171, (5R,8S)-2-(3-(5-((R)-3-Hydroxy-1-methyl-2-oxopyrrolidin-3-yl)isoxazol-3-yl)phenyl)-6,7,8,9-tetrahydro-5H-5,8-epoxycyclohepta[d]pyrimidine-4-carboxamide] the same measures were less than 100 nM and more than 501 nM.
Take `Cc1cc(C(N)=O)nc(-c2cccc(-c3cc([C@]4(O)CCN(C)C4=O)on3)c2)c1` [Example 155, (R)-6-(3-(5-(3-Hydroxy-1-methyl-2-oxopyrrolidin-3-yl)isoxazol-3-yl)phenyl)-4-methylpicolinamide]: the values for the IC50 in assay [1] and in assay [2] were less than 100 nM and 100 to 500 nM, respectively.
For `[2H]c1nc(N)c2nc(-c3cccc(-c4cc([C@@]5(O)CCN(C)C5=O)n[nH]4)c3)ccc2n1` (single isomer, unassigned) [Example 37] the same measures were more than 501 nM and more than 501 nM.
Regarding `CN1CC[C@@](O)(c2cc(-c3cccc(-c4ccnc(C(N)=O)n4)c3)no2)C1=O` [Example 162, (R)-4-(3-(5-(3-Hydroxy-1-methyl-2-oxopyrrolidin-3-yl)isoxazol-3-yl)phenyl)pyrimidine-2-carboxamide], the IC50 was less than 100 nM in assay [1] and more than 501 nM in assay [2].
Taken in the same sequence, the figures for `CN1CC[C@@](O)(c2cc(-c3cccc(-n4nc(C(N)=O)c5cc(F)ccc54)c3)no2)C1=O` [Example 101, (R)-5-Fluoro-1-(3-(5-(3-hydroxy-1-methyl-2-oxopyrrolidin-3-yl)isoxazol-3-yl)phenyl)-1H-indazole-3-carboxamide] were less than 100 nM and 100 to 500 nM.
Taken in the same sequence, the figures for `Cc1cn(C)nc1Nc1sc(-c2cccc(-c3cc([C@]4(O)CCN(C)C4=O)on3)c2)nc1C(N)=O` [Example 239, (R)-5-((1,4-Dimethyl-1H-pyrazol-3-yl)amino)-2-(3-(5-(3-hydroxy-1-methyl-2-oxopyrrolidin-3-yl)isoxazol-3-yl)phenyl)thiazole-4-carboxamide] were less than 100 nM and less than 100 nM.
Regarding `Cc1cn(-c2cccc(-c3cc([C@]4(O)CCN(C)C4=O)on3)c2)nc1C(N)=O` [Example 192, (R)-1-(3-(5-(3-Hydroxy-1-methyl-2-oxopyrrolidin-3-yl)isoxazol-3-yl)phenyl)-4-methyl-1H-pyrazole-3-carboxamide], the 50% inhibitory concentration (IC50) in assay [1] was less than 100 nM; in assay [2], more than 501 nM.
Regarding `CN1CC[C@@](O)(c2cc(-c3ccnc(N4CCc5ccnc(N)c5C4)c3)no2)C1=O` [Example 20, (R)-3-(3-(2-(8-Amino-3,4-dihydro-2,7-naphthyridin-2(1H)-yl)pyridin-4-yl)isoxazol-5-yl)-3-hydroxy-1-methylpyrrolidin-2-one], the IC50 in assay [1] was 100 to 500 nM; in assay [2], more than 501 nM.
Taken in the same sequence, the figures for `Cc1cc(-c2cc([C@]3(O)CCN(C)C3=O)on2)cc(-c2cccc(C(N)=O)n2)c1` [Example 152, (R)-6-(3-(5-(3-Hydroxy-1-methyl-2-oxopyrrolidin-3-yl)isoxazol-3-yl)-5-methylphenyl)picolinamide] were less than 100 nM and more than 501 nM.
Taken in the same sequence, the figures for `CN1CC[C@@](O)(c2cc(-c3cccc(-n4nc(C(N)=O)c5c4CCCC5)c3)no2)C1=O` [Example 102, (R)-1-(3-(5-(3-Hydroxy-1-methyl-2-oxopyrrolidin-3-yl)isoxazol-3-yl)phenyl)-4,5,6,7-tetrahydro-1H-indazole-3-carboxamide] were less than 100 nM and more than 501 nM.
For `CN1CC[C@@](O)(c2cc(-c3cccc(-c4nc(C(N)=O)c(N)c(C5CC5)n4)c3)no2)C1=O` [Example 132, (R)-5-Amino-6-cyclopropyl-2-(3-(5-(3-hydroxy-1-methyl-2-oxopyrrolidin-3-yl)isoxazol-3-yl)phenyl)pyrimidine-4-carboxamide] the same measures were less than 100 nM and less than 100 nM.
Turning to `COc1cc2c(cc1-c1cccc(-c3cc([C@]4(O)CCN(C)C4=O)on3)c1)COC2` [Example 81, (R)-3-Hydroxy-3-(3-(3-(6-methoxy-1,3-dihydroisobenzofuran-5-yl)phenyl)isoxazol-5-yl)-1-methylpyrrolidin-2-one], the IC50 in assay [1] and in assay [2] was more than 501 nM throughout.
For the compound `Cc1cn2nc(-c3cccc(-c4cc([C@]5(O)CCN(C)C5=O)on4)c3)ccc2n1` [Example 65, (R)-3-Hydroxy-1-methyl-3-(3-(3-(2-methylimidazo[1,2-b]pyridazin-6-yl)phenyl)isoxazol-5-yl)pyrrolidin-2-one], the IC50 in assay [1] and in assay [2] was more than 501 nM throughout.
As to `[2H]C1([2H])N(C)C(=O)[C@](O)(c2cc(-c3cccc(-c4nc(C(N)=O)n5c4CCCC5)c3)no2)C1([2H])[2H]` [Example 180, (R)-1-(3-(5-(3-Hydroxy-1-methyl-2-oxopyrrolidin-3-yl-4,4,5,5-d4)isoxazol-3-yl)phenyl)-5,6,7,8-tetrahydroimidazo[1,5-a]pyridine-3-carboxamide], the IC50 in assay [1] was less than 100 nM; in assay [2], 100 to 500 nM.
Taken in the same sequence, the figures for `Cc1ncnc2ccc(-c3cccc(-c4cc([C@]5(O)CCN(C)C5=O)on4)c3)nc12` [Example 25, (R)-3-Hydroxy-1-methyl-3-(3-(3-(4-methylpyrido[3,2-d]pyrimidin-6-yl)phenyl)isoxazol-5-yl)pyrrolidin-2-one] were 100 to 500 nM and more than 501 nM.
Regarding `CN1CC[C@@](O)(c2cc(-c3cccc(-c4cccc5c4CNC5=O)c3)no2)C1=O` [Example 59, (R)-4-(3-(5-(3-hydroxy-1-methyl-2-oxopyrrolidin-3-yl)isoxazol-3-yl)phenyl)isoindolin-1-one], the IC50 in assay [1] and in assay [2] was more than 501 nM each time.
